Among the data in patent US20240140938A1, “PREPARATION OF TETRAHYDROINDAZOLE DERIVATIVES AS NOVEL DIACYLGLYCERIDE O-ACYLTRANSFERASE 2 INHIBITORS” (MERCK SHARP & DOHME LLC, priority 2020, published 2024) are IC50 values, retold here.

Molecules are shown by their SMILES. pIC50: −log10 of the molar value.

Chain of human DGAT2 (hDGAT2) (Q96PD7 whole entry): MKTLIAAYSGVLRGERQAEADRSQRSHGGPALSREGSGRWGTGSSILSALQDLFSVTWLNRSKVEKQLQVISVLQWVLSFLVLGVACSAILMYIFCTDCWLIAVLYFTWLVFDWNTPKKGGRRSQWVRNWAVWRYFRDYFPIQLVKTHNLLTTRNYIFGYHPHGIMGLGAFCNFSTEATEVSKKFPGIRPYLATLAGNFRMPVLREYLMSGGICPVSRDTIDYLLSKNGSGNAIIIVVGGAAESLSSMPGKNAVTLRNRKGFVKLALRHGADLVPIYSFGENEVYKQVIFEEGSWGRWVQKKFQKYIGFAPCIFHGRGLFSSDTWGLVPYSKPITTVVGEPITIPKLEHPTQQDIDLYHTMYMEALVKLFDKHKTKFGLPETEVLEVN

For this assay, the target named is human DGAT2 (hDGAT2) (Homo sapiens (Human), UniProt Q96PD7). Kind of assay: DGAT2 Enzymatic Activity Assay. The format is biochemical. The settings on record: hDGAT2 Sf-9 membrane prep; 13C18-triolein product by LC/MS/MS; 25 μM diolein, 5 μM 13C oleoyl-CoA. The procedure, abridged:
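Enzyme source was membrane fractions from Sf-9 cells infected with untagged hDGAT2 baculovirus. Reactions ran at room temperature, and product 13C18-triolein was quantified by LC/MS/MS against a 13C21-triolein internal standard. % inhibition was normalised to high and low controls, and IC50 derived from it.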
In turn, `CNS(=O)(=O)CCNC(=O)[C@@H]1CCc2c(-c3cccc(OC(F)F)c3)nn(C(C)C)c2C1` [Example 71, (R)-3-(3-(difluoromethoxy)phenyl)-1-isopropyl-N-(2-(N-methylsulfamoyl)ethyl)-4,5,6,7-tetrahydro-1H-indazole-6-carboxamide] gave a pIC50 of less than 5.00.

As to `CC(=O)n1nc(-c2cccc(OC(F)F)c2)c2c1C[C@H](C(=O)N[C@@]1(C)CCS(=O)(=O)C1)CC2` [Example 73, (R)-1-acetyl-3-(3-(difluoromethoxy)phenyl)-N-((S)-3-methyl-1,1-dioxidotetrahydrothiophen-3-yl)-4,5,6,7-tetrahydro-1H-indazole-6-carboxamide], the pIC50 was less than 5.00.

For the compound `C[C@]1(NC(=O)[C@@H]2CCc3c(-c4cccc(OC(F)F)c4)nn(C(=O)C4CC4)c3C2)CCS(=O)(=O)C1` [Example 74, (R)-1-(cyclopropanecarbonyl)-3-(3-(difluoromethoxy)phenyl)-N-((S)-3-methyl-1,1-dioxidotetrahydrothiophen-3-yl)-4,5,6,7-tetrahydro-1H-indazole-6-carboxamide], the pIC50 is 5.54.

In the case of `C[C@]1(NC(=O)[C@@H]2CCc3c(-c4cccc(OC(F)F)c4)nn(C(=O)C4CCOCC4)c3C2)CCS(=O)(=O)C1` [Example 75, (R)-3-(3-(difluoromethoxy)phenyl)-N-((S)-3-methyl-1,1-dioxidotetrahydrothiophen-3-yl)-1-(tetrahydro-2H-pyran-4-carbonyl)-4,5,6,7-tetrahydro-1H-indazole-6-carboxamide], the pIC50 was less than 5.00.

As for `C[C@]1(NC(=O)[C@@H]2CCc3c(-c4cccc(OC(F)F)c4)nn(C(=O)c4ccccc4)c3C2)CCS(=O)(=O)C1` [Example 76, (R)-1-benzoyl-3-(3-(difluoromethoxy)phenyl)-N-((S)-3-methyl-1,1-dioxidotetrahydrothiophen-3-yl)-4,5,6,7-tetrahydro-1H-indazole-6-carboxamide], the pIC50 was 5.56.

Consider `C[C@]1(NC(=O)[C@@H]2CCc3c(-c4cccc(OC(F)F)c4)nn(Cc4ccccc4)c3C2)CCS(=O)(=O)C1` [Example 77, (R)-1-benzyl-3-(3-(difluoromethoxy)phenyl)-N-((S)-3-methyl-1,1-dioxidotetrahydrothiophen-3-yl)-4,5,6,7-tetrahydro-1H-indazole-6-carboxamide], for which the pIC50 was 6.24.

Consider `C[C@]1(NC(=O)[C@@H]2CCc3c(-c4cccc(OC(F)F)c4)nn(CC4CCOCC4)c3C2)CCS(=O)(=O)C1` [Example 78, (R)-3-(3-(difluoromethoxy)phenyl)-N-((S)-3-methyl-1,1-dioxidotetrahydrothiophen-3-yl)-1-((tetrahydro-2H-pyran-4-yl)methyl)-4,5,6,7-tetrahydro-1H-indazole-6-carboxamide], for which the pIC50 is less than 5.00.

As for `CC(C#N)n1nc(-c2cc(OC(F)F)ccc2F)c2c1C[C@H](C(=O)NC1(C)CS(=O)(=O)C1)CC2` (stereo partly drawn) [Example 79, (6R)-1-(1-cyanoethyl)-3-(5-(difluoromethoxy)-2-fluorophenyl)-N-(3-methyl-1,1-dioxidothietan-3-yl)-4,5,6,7-tetrahydro-1H-indazole-6-carboxamide], the pIC50 is 7.23.

In the case of `CC(c1nccs1)n1nc(-c2cc(OC(F)F)ccc2F)c2c1C[C@H](C(=O)NC1(C)CS(=O)(=O)C1)CC2` (stereo partly drawn) [Example 80, (6R)-3-(5-(difluoromethoxy)-2-fluorophenyl)-N-(3-methyl-1,1-dioxidothietan-3-yl)-1-(1-(thiazol-2-yl)ethyl)-4,5,6,7-tetrahydro-1H-indazole-6-carboxamide], the pIC50 was 6.76. Compared with the last compound, the pIC50 is 0.47 log units lower.

In turn, `CC(C)Oc1ccc(F)c(-c2nn(C(C)C)c3c2CC[C@@H](C(=O)NC2(C)CS(=O)(=O)C2)C3)c1` [Example 81, (R)-3-(2-fluoro-5-isopropoxyphenyl)-1-isopropyl-N-(3-methyl-1,1-dioxidothietan-3-yl)-4,5,6,7-tetrahydro-1H-indazole-6-carboxamide] showed a pIC50 of 7.61.
